Patent US20250228239A1, “MOLECULES HAVING PESTICIDAL UTILITY, AND INTERMEDIATES, COMPOSITIONS, AND PROCESSES, RELATED THERETO” (priority 2024, published 2025)

Key:
Type in all cases: in vivo
[1] = system: Cabbage Looper (Trichoplusia ni, TRIPNI); experiment: Bioassays on Cabbage Looper (CL), 128-well diet tray assay; conditions: Trichoplusia ni; Cabbage Looper, Table ABC / ABC-DP rating; read-out: CL rating
Procedure, shortened: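 Test molecule was dissolved in 90:10 acetone-water, applied to artificial diet at 50 μg/cm^2 and allowed to dry. Second-instar larvae were then added, one to five per well, and trays held at 25° C for five to seven days before mortality was scored and averaged.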

[2] = system: Yellow Fever Mosquito (Aedes aegypti, AEDSAE); conditions: Yellow Fever Mosquito, Table ABC / ABC-DP rating
Procedure, shortened: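 Compounds from DMSO master plates (4000 ppm stock) diluted in 90:10 water/acetone, then dispensed into six replicate plates and infested with ~1-day-old Aedes aegypti larvae in liver-powder water. Held covered at room temperature for 3 days; each well scored for larval mortality and graded on a rating scale.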

[3] = system: Beet Armyworm (Spodoptera exigua, LAPHEG); experiment: Bioassays on Beet Armyworm (BAW), 128-well diet tray assay; conditions: Spodoptera exigua; Beet Armyworm, Table ABC / ABC-DP rating; read-out: BAW rating
Procedure, shortened: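 Percent larval mortality, averaged across eight wells, scored after five to seven days at 25° C. under 14:10 light-dark. Each well held one to five second instars feeding on diet dosed at 50 μg/cm^2 with compound from 90:10 acetone-water, solvent dried off.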

Row | SMILES | pest or weed control at 50 µg/cm2 [1] | YFM rating [2] | pest or weed control at 50 µg/cm2 [3]
1 | Cc1cc(NC(=O)[C@H]2[C@H](c3ccc(F)c(Cl)c3)C2(Cl)Cl)cc(C(=O)NCC(F)(F)F)c1Cl (relative stereo) [F2038, trans-2-Chloro-5-(2,2-dichloro-3-(3-chloro-4-fluorophenyl)cyclopropane-1-carboxamido)-3-methyl-N-(2,2,2-trifluoroethyl)benzamide] | 50 to 100% | A (80–100) | 50 to 100%
2 | Cc1c(Cl)cc(NC(=O)[C@H]2[C@H](c3ccc(F)c(Cl)c3)C2(Cl)Cl)cc1C(=O)NCC(F)(F)C(F)(F)F (relative stereo) [F2043, trans-3-Chloro-5-(2,2-dichloro-3-(3-chloro-4-fluorophenyl)cyclopropane-1-carboxamido)-2-methyl-N-(2,2,3,3,3-pentafluoropropyl)benzamide] | 50 to 100% | A (80–100) | 50 to 100%
3 | Cc1c(Cl)cc(NC(=O)[C@H]2[C@H](c3ccc(F)c(Cl)c3)C2(Cl)Cl)cc1C(=O)NCCCCl (relative stereo) [F2044, trans-3-Chloro-N-(3-chloropropyl)-5-(2,2-dichloro-3-(3-chloro-4-fluorophenyl)cyclopropane-1-carboxamido)-2-methylbenzamide] | 50 to 100% | A (80–100) | 50 to 100%
4 | O=C(NCC(F)(F)F)c1cc(NC(=O)[C@H]2[C@H](c3ccc(F)c(Cl)c3)C2(Cl)Cl)cc(C(F)(F)F)c1Cl (relative stereo) [F2054, trans-2-Chloro-5-(2,2-dichloro-3-(3-chloro-4-fluorophenyl)cyclopropane-1-carboxamido)-N-(2,2,2-trifluoroethyl)-3-(trifluoromethyl)benzamide] | 50 to 100% | A (80–100) | 50 to 100%
5 | O=C(NCCC(F)(F)F)c1cc(NC(=O)[C@H]2[C@H](c3ccc(F)c(Cl)c3)C2(Cl)Cl)cc(C(F)(F)F)c1Cl (relative stereo) [F2055, trans-2-Chloro-5-(2,2-dichloro-3-(3-chloro-4-fluorophenyl)cyclopropane-1-carboxamido)-3-(trifluoromethyl)-N-(3,3,3-trifluoropropyl)benzamide] | 50 to 100% | A (80–100) | 50 to 100%
6 | O=C(NCC(F)(F)C(F)(F)F)c1cc(NC(=O)[C@H]2[C@H](c3ccc(F)c(Cl)c3)C2(Cl)Cl)cc(C(F)(F)F)c1Cl (relative stereo) [F2056, trans-2-Chloro-5-(2,2-dichloro-3-(3-chloro-4-fluorophenyl)cyclopropane-1-carboxamido)-N-(2,2,3,3,3-pentafluoropropyl)-3-(trifluoromethyl)benzamide] | 50 to 100% | A (80–100) | 50 to 100%
7 | COc1c(F)cc(NC(=O)[C@H]2[C@H](c3ccc(F)c(Cl)c3)C2(Cl)Cl)cc1C(=O)NCC(F)(F)F (relative stereo) [F2058, trans-5-(2,2-Dichloro-3-(3-chloro-4-fluorophenyl)cyclopropane-1-carboxamido)-3-fluoro-2-methoxy-N-(2,2,2-trifluoroethyl)benzamide] | 50 to 100% | A (80–100) | 50 to 100%
8 | COc1c(F)cc(NC(=O)[C@H]2[C@H](c3ccc(F)c(Cl)c3)C2(Cl)Cl)cc1C(=O)NCCC(F)(F)F (relative stereo) [F2059, trans-5-(2,2-Dichloro-3-(3-chloro-4-fluorophenyl)cyclopropane-1-carboxamido)-3-fluoro-2-methoxy-N-(3,3,3-trifluoropropyl)benzamide] | 50 to 100% | A (80–100) | 50 to 100%
9 | COc1c(F)cc(NC(=O)[C@H]2[C@H](c3ccc(F)c(Cl)c3)C2(Cl)Cl)cc1C(=O)NCC(F)(F)C(F)(F)F (relative stereo) [F2060, trans-5-(2,2-Dichloro-3-(3-chloro-4-fluorophenyl)cyclopropane-1-carboxamido)-3-fluoro-2-methoxy-N-(2,2,3,3,3-pentafluoropropyl)benzamide] | 50 to 100% | A (80–100) | 50 to 100%
10 | Cc1c(F)cc(NC(=O)[C@H]2[C@H](c3ccc(F)c(Cl)c3)C2(Cl)Cl)cc1C(=O)NCC(F)(F)F (relative stereo) [F2063, trans-5-(2,2-Dichloro-3-(3-chloro-4-fluorophenyl)cyclopropane-1-carboxamido)-3-fluoro-2-methyl-N-(2,2,2-trifluoroethyl)benzamide] | 50 to 100% | A (80–100) | 50 to 100%
11 | Cc1c(F)cc(NC(=O)[C@H]2[C@H](c3ccc(F)c(Cl)c3)C2(Cl)Cl)cc1C(=O)NCC(F)(F)C(F)(F)F (relative stereo) [F2064, trans-5-(2,2-Dichloro-3-(3-chloro-4-fluorophenyl)cyclopropane-1-carboxamido)-3-fluoro-2-methyl-N-(2,2,3,3,3-pentafluoropropyl)benzamide] | 50 to 100% | A (80–100) | 50 to 100%
12 | O=C(NCCNC(=O)C(F)(F)F)c1cc(NC(=O)[C@H]2[C@H](c3cc(Cl)cc(Cl)c3)C2(Cl)Cl)ccc1Cl (relative stereo) [F2066, trans-2-Chloro-5-(2,2-dichloro-3-(3,5-dichlorophenyl)cyclopropane-1-carboxamido)-N-(2-(2,2,2-trifluoroacetamido)ethyl)benzamide] | 50 to 100% | A (80–100) | 50 to 100%
13 | CC(=O)NCCCNC(=O)c1cc(NC(=O)[C@H]2[C@H](c3cc(Cl)cc(Cl)c3)C2(Cl)Cl)ccc1Cl (relative stereo) [F2067, trans-N-(3-Acetamidopropyl)-2-chloro-5-(2,2-dichloro-3-(3,5-dichlorophenyl)cyclopropane-1-carboxamido)benzamide] | 50 to 100% | A (80–100) | 50 to 100%
14 | CC(=O)NCCCCNC(=O)c1cc(NC(=O)[C@H]2[C@H](c3cc(Cl)cc(Cl)c3)C2(Cl)Cl)ccc1Cl (relative stereo) [F2068, trans-N-(4-Acetamidobutyl)-2-chloro-5-(2,2-dichloro-3-(3,5-dichlorophenyl)cyclopropane-1-carboxamido)benzamide] | 50 to 100% | A (80–100) | 50 to 100%
15 | CC(=O)NCCCCCNC(=O)c1cc(NC(=O)[C@H]2[C@H](c3cc(Cl)cc(Cl)c3)C2(Cl)Cl)ccc1Cl (relative stereo) [F2069, trans-N-(5-Acetamidopentyl)-2-chloro-5-(2,2-dichloro-3-(3,5-dichlorophenyl)cyclopropane-1-carboxamido)benzamide] | 50 to 100% | A (80–100) | 50 to 100%
16 | CNC(=O)CCNC(=O)c1cc(NC(=O)[C@H]2[C@H](c3cc(Cl)cc(Cl)c3)C2(Cl)Cl)ccc1Cl (relative stereo) [F2070, trans-2-Chloro-5-(2,2-dichloro-3-(3,5-dichlorophenyl)cyclopropane-1-carboxamido)-N-(3-(methylamino)-3-oxopropyl)benzamide] | 50 to 100% | A (80–100) | 50 to 100%
17 | O=C(NCC(F)(F)c1ccccc1)c1cc(NC(=O)[C@H]2[C@H](c3cc(Cl)cc(Cl)c3)C2(Cl)Cl)ccc1Cl (relative stereo) [F2077, trans-2-Chloro-5-(2,2-dichloro-3-(3,5-dichlorophenyl)cyclopropane-1-carboxamido)-N-(2,2-difluoro-2-phenylethyl)benzamide] | 50 to 100% | B (More than 0 – Less than 80) | 50 to 100%
18 | CCC(F)(F)CNC(=O)c1cc(NC(=O)[C@H]2[C@H](c3cc(Cl)cc(Cl)c3)C2(Cl)Cl)ccc1Cl (relative stereo) [F2086, trans-2-Chloro-5-(2,2-dichloro-3-(3,5-dichlorophenyl)cyclopropane-1-carboxamido)-N-(2,2-difluorobutyl)benzamide] | 50 to 100% | A (80–100) | 50 to 100%
19 | CCC(F)(F)CNC(=O)c1cc(NC(=O)[C@H]2[C@H](c3cc(Cl)cc(Cl)c3)C2(Cl)Cl)cc(F)c1Cl (relative stereo) [F2088, trans-2-Chloro-5-(2,2-dichloro-3-(3,5-dichlorophenyl)cyclopropane-1-carboxamido)-N-(2,2-difluorobutyl)-3-fluorobenzamide] | 50 to 100% | B (More than 0 – Less than 80) | 50 to 100%
20 | CCOC(=O)C(F)(F)CNC(=O)c1cc(NC(=O)[C@H]2[C@H](c3cc(Cl)cc(Cl)c3)C2(Cl)Cl)cc(F)c1Cl (relative stereo) [F2089, trans-Ethyl 3-(2-chloro-5-(2,2-dichloro-3-(3,5-dichlorophenyl)cyclopropane-1-carboxamido)-3-fluorobenzamido)-2,2-difluoropropanoate] | 50 to 100% | A (80–100) | 50 to 100%
